pKi: −log10 of the molar value. Several values for one entry are separate records, joined by “and”; a condition that tells them apart may be missing. Identical values can stand only once.
experiment: Displacement of [3H](-)-cytisine from rat brain nicotinic acetylcholine receptors (nAChR)

Row | SMILES | pKi
1 | Cc1cc([C@@H]2C[C@H](CO)CN2C)on1 (single isomer, unassigned) | 5.09
2 | Cc1cc([C@H]2CCCN2C)on1 | 8.13
3 | Cc1cc([C@H]2C[C@H](C)CN2C)on1 | 6.02
4 | Cc1cc([C@@H]2C[C@@H](CO)CN2C)on1 | 5.18
5 | Cc1cc([C@@H]2CCCN2C)on1 [ABT-418] | 8.52
6 | Cc1cc([C@H]2C[C@@H](CO)CN2C)on1 | 4.96
7 | Cc1cc([C@@H]2C[C@@H](C)CN2C)on1 | 7.72
8 | Cc1cc([C@H]2C[C@H](CF)CN2C)on1 | 4.77
9 | Cc1cc([C@@H]2C[C@@H](CF)CN2C)on1 | 6.81
10 | Cc1cc([C@H]2CC[C@H](C)N2C)on1 | 7.15 and 6.78
11 | Cc1cc([C@@H]2C[C@H](CF)CN2C)on1 | 5.77
12 | Cc1cc([C@H]2C[C@H](CO)CN2C)on1 | 5.22
